# Patent publication US8148531B2 (Chroma Therapeutics Ltd., priority 2005, dated 2012)
# How the values were obtained:
# [1] = molecular target: T1, Aurora-A (Homo sapiens, UniProt O14965); assay: Aurora-A enzyme assay (MBP-coated Flashplate, γ-33P-ATP); assay type: biochemical; conditions: IC50 range class; read-out: Inhibitor Activity vs Aurora-A
# T1 sequence (O14965 1-403): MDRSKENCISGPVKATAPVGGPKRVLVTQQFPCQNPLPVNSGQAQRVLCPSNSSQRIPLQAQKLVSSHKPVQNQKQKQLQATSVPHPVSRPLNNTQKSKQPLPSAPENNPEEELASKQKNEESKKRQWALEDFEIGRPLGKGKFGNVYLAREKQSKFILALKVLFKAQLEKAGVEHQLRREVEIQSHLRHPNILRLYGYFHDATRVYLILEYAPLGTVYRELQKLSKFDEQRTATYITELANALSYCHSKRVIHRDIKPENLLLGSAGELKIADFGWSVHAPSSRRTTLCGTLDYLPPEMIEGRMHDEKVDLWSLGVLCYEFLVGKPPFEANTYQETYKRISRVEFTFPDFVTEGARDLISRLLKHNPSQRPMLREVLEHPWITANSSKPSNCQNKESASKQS
# Procedure: (§1) The ability of compounds to inhibit Aurora-A activity was measured using a simple microplate assay for Aurora-A activity, also suitable for high-throughput screening. In brief, γ-^33P-ATP and Aurora-A were incubated in a myelin basic protein (MBP)-coated Flashplate® to generate a scintillation signal. The plates were formatted to contain the inhibitor, controls, positive control (staurosporin) and blanks. After incubation at 37° C. for 1 hour and a subsequent wash procedure, the plates were read on a TopCount-NXT™.
# The 384-well basic Flashplate® and the γ-^33P-ATP were obtained from PerkinElmer Life Sciences, Boston, Mass.
# (§2) IC50 values were determined by non-linear regression analysis, after fitting the data point results to the equation for sigmoidal dose response with variable slope (% activity against log concentration of compound), using Graphpad Prism software.
# Full experimental procedure for this assay can be found within the following reference: Sun, C Journal of Biomolecular Screening 9(5), 2004, 391.
# [2] = molecular target: Aurora-B (Homo sapiens, UniProt Q96GD4); assay: Aurora-B enzyme assay (identical protocol as Aurora-A); assay type: biochemical; conditions: IC50 range class; read-out: Inhibitor Activity vs Aurora-B
# Aurora-B, sequence (Q96GD4 whole entry): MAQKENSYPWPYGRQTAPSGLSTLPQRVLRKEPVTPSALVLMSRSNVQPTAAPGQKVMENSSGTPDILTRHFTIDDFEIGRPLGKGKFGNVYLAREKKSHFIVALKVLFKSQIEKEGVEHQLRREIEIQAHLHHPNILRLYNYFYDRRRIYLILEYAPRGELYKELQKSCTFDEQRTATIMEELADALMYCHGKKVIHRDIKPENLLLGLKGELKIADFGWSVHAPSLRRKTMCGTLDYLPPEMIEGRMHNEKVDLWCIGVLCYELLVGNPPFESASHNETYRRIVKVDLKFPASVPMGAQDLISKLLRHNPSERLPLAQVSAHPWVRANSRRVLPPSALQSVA
# Procedure: as §1, §2
# The Aurora-B enzyme assay follows the identical protocol as Aurora-A.
# [3] = system: HCT 116 cell line; assay: Cell inhibition assay (SRB cell viability), HCT 116; assay type: cell-based; conditions: Homo sapiens, IC50 range class, 72 h, read-out: Inhibitor Activity vs HCT 116 cell line
# In short: (§3)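 Log-phase cells seeded at 1000 cells/well, grown 24 h, then exposed to compounds (20 uM final) for 72 h. Viability read by sulphorhodamine B staining as % inhibition versus DMSO; IC50 from eight-point sigmoidal variable-slope fit.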
# [4] = system: HUT cell line; assay: Cell inhibition assay (SRB cell viability), HUT; assay type: cell-based; conditions: IC50 range class, 72 h, read-out: Inhibitor Activity vs HUT cell line
# In short: as §3
# [5] = system: U937 cell line; assay: Cell inhibition assay (SRB cell viability), U937; assay type: cell-based; conditions: Homo sapiens, U-937, IC50 range class, 72 h, read-out: Inhibitor Activity vs U937 cell line
# In short: as §3
Compound,IC50 [1] [nM],IC50 [2] [nM],IC50 [3] [nM],IC50 [4] [nM],IC50 [5] [nM]
"COc1cc2c(Sc3ccc(NC(=O)C4CC4)cc3)ccnc2cc1OCC[C@H](N)C(=O)O [Example 21, (S)-2-Amino-4-{4-[4-(cyclopropanecarbonyl-amino)-phenylsulfanyl]-6-methoxy-quinolin-7-yloxy}-butyric acid]",2000 to 5000,2000 to 5000,,,
"COc1ccc(C(=O)Nc2ccc(Oc3ccnc4cc(OCC[C@H](N)C(=O)O)c(OC)cc34)cc2)cc1 [Example 58, (S)-2-Amino-4-{6-methoxy-4-[4-(4-methoxy-benzoylamino)-phenoxy]-quinolin-7-yloxy}-butyric acid]",> 5000,< 2000,,,
"COc1cc2c(Oc3ccc(CC(=O)Nc4cccc(F)c4)cc3)ccnc2cc1OCC[C@H](N)C(=O)O [Example 85, (S)-2-Amino-4-(4-{4-[(3-fluoro-phenylcarbamoyl)-methyl]-phenoxy}-6-methoxy-quinolin-7-yloxy)-butyric acid]",2000 to 5000,< 2000,,,
COc1cc2c(Nc3ccc(NC(=O)c4ccccc4)cc3)c(C#N)cnc2cc1OCC[C@H](NC(=O)OC(C)(C)C)C(=O)OC1CCCC1 [Example 28],> 5000,,> 5000,1000 to 5000,< 1000
"COc1ccc(NC(=O)Cc2ccc(Oc3ccnc4cc(OCC[C@H](N)C(=O)O)c(OC)cc34)cc2)cc1 [Example 91, (S)-2-Amino-4-(6-methoxy-4-{4-[(4-methoxy-phenylcarbamoyl)-methyl]-phenoxy}-quinolin-7-yloxy)-butyric acid]",2000 to 5000,< 2000,,,
COc1cc2c(Nc3ccc(NC(=O)c4ccccc4)cc3)c(C#N)cnc2cc1OCC[C@H](N)C(=O)OC1CCCC1 [Example 27],> 5000,,1000 to 5000,< 1000,1000 to 5000
"COc1cc2c(Oc3ccc(NC(=O)c4ccccc4)cc3F)ccnc2cc1OCC[C@H](N)C(=O)O [Example 129, (S)-2-Amino-4-[4-(4-benzoylamino-2-fluoro-phenoxy)-6-methoxy-quinolin-7-yloxy]-butyric acid]",< 2000,< 2000,,,
"COc1cc2c(Oc3ccc(CNC(=O)c4ccccc4)cc3)ccnc2cc1OCC[C@H](N)C(=O)O [Example 142, (S)-2-Amino-4-{4-[4-(benzoylamino-methyl)-phenoxy]-6-methoxy-quinolin-7-yloxy}-butyric acid]",2000 to 5000,< 2000,,,
"COc1cc2c(Nc3ccc(NC(=O)c4ccccc4)cc3)ccnc2cc1OCC[C@H](N)C(=O)O [Example 16, (S)-2-Amino-4-[4-(4-benzoylamino-phenylamino)-6-methoxy-quinolin-7-yloxy]-butyric acid]",> 5000,2000 to 5000,,,
"COc1cc2c(Sc3ccc(NC(=O)c4ccccc4)cc3)ccnc2cc1OCC[C@H](N)C(=O)O [Example 19, (S)-2-Amino-4-[4-(4-benzoylamino-phenylsulfanyl)-6-methoxy-quinolin-7-yloxy]-butyric acid]",< 2000,< 2000,,,
"COc1cc2c(Oc3ccc(NC(=O)c4ccccc4)cc3)ccnc2cc1OCC[C@@H](N)C(=O)O [Example 100, (R)-2-Amino-4-[4-(4-benzoylamino-phenoxy)-6-methoxy-quinolin-7-yloxy]-butyric acid]",2000 to 5000,< 2000,,,
"COc1cc2c(Oc3ccc(CC(=O)Nc4ccc(F)cc4F)cc3)ccnc2cc1OCC[C@H](N)C(=O)O [Example 89, (S)-2-Amino-4-(4-{4-[(2,4-difluoro-phenylcarbamoyl)-methyl]-phenoxy}-6-methoxy-quinolin-7-yloxy)-butyric acid]",> 5000,< 2000,,,
"COc1cc2c(Oc3ccc(NC(=O)c4ccccc4F)cc3)ccnc2cc1OCC[C@H](N)C(=O)O [Example 62, (S)-2-Amino-4-{4-[4-(2-fluoro-benzoylamino)-phenoxy]-6-methoxy-quinolin-7-yloxy}-butyric acid]",2000 to 5000,< 2000,,,
"COc1cc2c(Oc3ccc(NC(=O)c4ccccc4)cc3)ccnc2cc1OCC[C@H](NC(C)=O)C(=O)O [Example 43, (S)-2-Acetylamino-4-[4-(4-benzoylamino-phenoxy)-6-methoxy-quinolin-7-yloxy]-butyric acid]",< 2000,< 2000,,,
"COc1cc2c(Oc3ccc(NC(=O)c4ccc(C(F)(F)F)cc4)cc3)ccnc2cc1OCC[C@H](N)C(=O)O [Example 54, (S)-2-Amino-4-{6-methoxy-4-[4-(4-trifluoromethyl-benzoylamino)-phenoxy]-quinolin-7-yloxy}-butyric acid]",< 2000,< 2000,,,
"COc1cc2c(Oc3ccc(CC(=O)Nc4ccccc4)cc3)ccnc2cc1OCC[C@H](N)C(=O)O [Example 81, (S)-2-Amino-4-[6-methoxy-4-(4-phenylcarbamoylmethyl-phenoxy)-quinolin-7-yloxy]-butyric acid]",2000 to 5000,2000 to 5000,,,
"COc1cc2c(Oc3ccc(NC(=O)c4ccccc4)cc3OC)ccnc2cc1OCC[C@H](N)C(=O)O [Example 133, (S)-2-Amino-4-[4-(4-benzoylamino-2-methoxy-phenoxy)-6-methoxy-quinolin-7-yloxy]-butyric acid]",2000 to 5000,2000 to 5000,,,
"COc1cc2c(Sc3ccc(NC(=O)Nc4ccc(C(F)(F)F)cc4)cc3)ccnc2cc1OCCC[C@@H](N)C(=O)O [Example 122, (R)-2-Amino-5-(6-methoxy-4-{4-[3-(4-trifluoromethyl-phenyl)-ureido]-phenylsulfanyl}-quinolin-7-yloxy)-pentanoic acid]",< 2000,< 2000,,,
"COc1cc2c(Oc3ccc(NC(=O)Nc4ccccc4)cc3)ccnc2cc1OCC[C@@H](N)C(=O)O [Example 102, (R)-2-Amino-4-{6-methoxy-4-[4-(3-phenyl-ureido)-phenoxy]-quinolin-7-yloxy}-butyric acid]",< 2000,< 2000,,,
"COc1cc2c(Oc3ccc(NC(=O)c4ccccc4)cc3)ncnc2cc1OCC[C@H](N)C(=O)O [Example 30, (S)-2-Amino-4-[4-(4-benzoylamino-phenoxy)-6-methoxy-quinazolin-7-yloxy]-butyric acid]",2000 to 5000,2000 to 5000,,,
"COc1cc2c(Oc3ccc(NC(=O)c4ccccc4)cc3F)ccnc2cc1OCC[C@H](N)C(=O)OC1CCCC1 [Example 128, (S)-2-Amino-4-[4-(4-benzoylamino-2-fluoro-phenoxy)-6-methoxy-quinolin-7-yloxy]-butyric acid cyclopentyl ester]",,2000 to 5000,< 1000,< 1000,< 1000
COc1cc2c(Oc3ccc(NC(=O)c4ccccc4)cc3)ccnc2cc1OCC[C@H](NC(=O)OC(C)(C)C)C(=O)O [Example 3],< 2000,< 2000,,,
"COc1cc2c(Oc3ccc(NC(=O)c4ccccc4)c(F)c3)ccnc2cc1OCC[C@H](N)C(=O)O [Example 131, (S)-2-Amino-4-[4-(4-benzoylamino-3-fluoro-phenoxy)-6-methoxy-quinolin-7-yloxy]-butyric acid]",> 5000,2000 to 5000,,,
"COc1cc2c(Oc3ccc(NC(=O)c4ccc(C(F)(F)F)cc4)cc3)ccnc2cc1OCC[C@H](N)C(=O)OC1CCCC1 [Example 53, (S)-2-Amino-4-{6-methoxy-4-[4-(4-trifluoromethyl-benzoylamino)-phenoxy]-quinolin-7-yloxy}-butyric acid cyclopentyl ester]",,< 2000,< 1000,< 1000,< 1000
"COc1cc2c(Oc3ccc(C(=O)Nc4ccccc4)cc3)ccnc2cc1OCC[C@H](N)C(=O)OC1CCCC1 [Example 77, (S)-2-Amino-4-[6-methoxy-4-(4-phenylcarbamoyl-phenoxy)-quinolin-7-yloxy]-butyric acid cyclopentyl ester]",,> 5000,> 5000,1000 to 5000,1000 to 5000
"COc1ccc(C(=O)Nc2ccc(Oc3ccnc4cc(OCC[C@H](N)C(=O)OC5CCCC5)c(OC)cc34)cc2)cc1 [Example 57, (S)-2-Amino-4-{6-methoxy-4-[4-(4-methoxy-benzoylamino)-phenoxy]-quinolin-7-yloxy}-butyric acid cyclopentyl ester]",,2000 to 5000,1000 to 5000,1000 to 5000,< 1000
